What was measured:
SJ-GBM2 cells [1] = settings: read-out: IC50 (cell viability); 24 hr
Description: (§2) Cell viability was evaluated by a CCK-8 assay (Dojindo, Japan). Cells were seeded at a density of 4,000 cells per well in 100 μl of growth medium in 96-well plates and grown overnight. Then, the cells were exposed to antisense miR-20a alone, p28 alone or negative control or AmiR20-p28 over a range of concentrations and incubated for 24 hr. According to the manufacturer's instructions, 10 μl of CCK-8 solution was added to each well, followed by incubation for 1 hr at 37° C. The absorbance at 450 nm was determined by a multiplate reader.
Cell viability (%)=Abs(sample)−Abs(blank)/Abs(no treatment)−Abs(blank)×100

CHLA-200 cells = assay: Annexin V/PI flow cytometric apoptosis assay, CHLA-200; format: cell-based, human; settings: 10 nM, 24 h
Description: (§1) Cells were seeded into 10-cm dishes and cultured overnight. Then, the cells were treated with 10 nM antisense miR-20a alone, p28 alone or AmiR20-p28 for 24 hr. Cells were washed with 1×PBS, detached with TrypleE (Invitrogen). and collected by centrifugation. Cells were washed and resuspended with 1× Annexin binding buffer (Life Technologies, catalog #V13242), and the cell density was maintained at 10^6 cells/ml. Subsequently, 5 μl of Annexin-V was added to 100 μl of the cell suspension, and the mixture was incubated for 15 min at room temperature. The cells were washed and incubated with 5 μl of PI for an additional 15 min on ice, washed and resuspended in 200 μl of buffer. Cells without treatment were used as controls. After washing, cells were subjected to flow cytometry (Gallios flow cytometer) and analyzed with Kaluza software to give the proportions of dead (top left quadrant), late apoptotic (top right quadrant), early apoptotic (bottom right quadrant) and viable (bottom left quadrant) cells.

miR-20a = miR-20a levels in resected tumor tissues of treated mice; format: in vivo; settings: 1 mg/kg 3 times a week for one week; vs PBS-treated mice
From the text: Micro RNA enriched fraction was extracted using the miRNeasy Mini Kit (Qiagen, Catalog #217004) following the manufacturer's instructions. Stem loop real-time qPCR was used to analyze miRNA expression. We designed miR-20a stem loop RT primers and amplification primers according to a previously described method 79. cDNA was synthesized from extracted RNA using unique stem loop RT primers. The sequence of the stem loop primer for miR-20a was 5′-[…]-3′ (SEQ ID NO:7). Reverse transcriptase reactions contained the following reagents: 10 ng of RNA sample, 60 nM stem-loop RT primer, 1×RT buffer, 0.25 mM dNTP, and 4 U/μl reverse transcriptase. Reactions were performed by incubation at 16° C. for 30 min, 42° C. for 30 min and 85° C. for 5 min. Real-time PCR (7300 Real time PCR Systems, Applied Biosystems, CA) was performed using the specific forward primer for miR-20a (5′-[…]-3′ (SEQ ID NO:8)) and a universal reverse primer (5′-GTGCA GGGTC CGAGGT-3′ (SEQ ID NO:9)). […]
A quantitative analysis using human-specific Alu sequence (hAlu) was performed on samples collected from the isolated brain tissues. […] The amount of hAlu and mGAPDH DNA in the tissue was calculated by comparison with a standard curve, and the calculated amount of hAlu DNA was normalized against the relative quantity of mGAPDH. […]

SJ-GBM2 cells [2] = assay: Annexin V/PI flow cytometric apoptosis assay, SJ-GBM2; format: cell-based, human; settings: 10 nM, 24 h
Description: as §1

[3] = system: MDA-MB231, SKOV3, Mia-Paca2, Colon 205 and DU145 cells; assay: CCK-8 cell viability assay, other solid tumor cells; format: cell-based, human; settings: 10 nM
Description: as §2

astrocytes = assay: Annexin V/PI flow cytometric apoptosis assay, astrocytes; format: cell-based, human; settings: 10 nM, 24 h
Description: as §1

**Q.** Which results are given for “AmiR20-p28: BBB-permeable tumor-navigating CPP p28 (Cys-p28) covalently linked to 2′ O-methyl antisense miR-20a (5′-maleimide)”?
**A.** IC50 (SJ-GBM2 cells [1]): 8 nM; apoptotic cells increased by (CHLA-200 cells): 14%; miR-20a levels in tumor tissues (miR-20a): significant decrease in miR-20a levels; increase in apoptotic cells by (SJ-GBM2 cells [2]): 16%; effect on the viability [3]: little effect on the viability; apoptotic cells after treatment (astrocytes): 0.5%

Source: patent publication US20260193647A1, “MIRNA-BASED CANCER THERAPY WITH A TUMOR-NAVIGATING PEPTIDE” (The Board of Trustees of the Universities of Illinois, priority 2022, published 2026)
